Source: US20260116847A1 (priority 2023, published 2026)
One block for each compound: values may come before it.

Assays:
[1] = test system: kainic acid-induced status epilepticus model; details: mouse study; cited from earlier work
[2] = test system: tumor-specific antigens (CEA, CA 19/9, CA 125, prostate-specific antigen); details: meta-analysis of phase I/II trials, over 400 patients, solid tumors; cited from earlier work
[3] = Thermogravimetric analysis (TGA); assay type: physicochemical; details: 10° C./min; for weight loss (TG): 25° C.-195° C.; for degradation temperature (TG): range 25° C.-320° C.
Experimental: Thermogravimetric analysis for the crystalline polymorphic form I, II and III was performed using a Mettler Toledo TGA/DSC1 apparatus. The sample was weighed in an aluminum pan closed with an aluminum cover with holes.
[…] […] The degradation occurred above 200° C. The TG analysis proves that the crystalline polymorphic form I of marimastat exists in the anhydrous form.
[…] […] The degradation occurred above 200° C. The TG analysis proves that the crystalline polymorphic form II of marimastat exists in the anhydrous form.
This sample was analyzed by TGA-EGA. The analysis was performed at a temperature of 25° C.-320° C. at a rate of 10° C./min. […] The degradation occurred above 200° C. The TG analysis proves that the crystalline polymorphic form III of marimastat exists in the anhydrous form.

[4] = Stability studies of solid forms under storage conditions, XRPD; assay type: physicochemical; details: 25° C./100% RH and 40° C./75% RH 7 days; 30°/100 mbar 1 hour; room temperature 1 year; above 150° C.
Experimental: Stability studies of the amorphous form, pure crystalline polymorphic forms I, II and III and the mixture of the crystalline polymorphic forms I and III were carried out under the following conditions: 25° C./100% RH (relative humidity) and 40° C./75% RH (relative humidity) for 7 days, at 30°/100 mbar for 1 hour, at room temperature for 1 year, and also at elevated temperature (above 150° C.).

[5] = Stability of the forms I, II and III stirred together in various solvents, XRPD; assay type: physicochemical; details: for thermodynamic stability of the form: maceration of the mixture of all three forms in different solvents, room temperature, 4 days; for XRPD form after stirring: 25 °C, 4 d
Excerpt: The remaining 7 solvents gave the initial mixture of three polymorphic forms. Thus, when using the mixture of all three forms for maceration in different solvents, complete disappearance of the form II and the form III, complete disappearance of the form II, or all three forms remaining in the mixture were observed. The complete disappearance of the form I was not observed in any of the experiments.

[6] = Solubility tests in water; assay type: physicochemical; details: comparison of forms I, II and III
Experimental: Solubility tests were performed by dissolving samples of pure forms of marimastat in water.

[7] = Stability of the form II in various solvents at room temperature, XRPD; assay type: physicochemical; details: for XRPD form after stirring: 25 °C, 4 d
Experimental: The stability of the form II in various solvents at room temperature was tested. Experiments were performed by suspending the form II in 1 ml of solvent and the formed suspension was stirred at room temperature at 25° C. for 4 days. Then, the precipitate was filtered off and the samples were dried at a temperature of 30° C./100 mbar for one hour, followed by XRPD analysis.

[8] = Microscopic examinations / bulk density; assay type: physicochemical; details: comparison of the forms
Experimental: Microscopic examinations were performed using an optical microscope or electron microscope.

Structure (SMILES): CNC(=O)[C@@H](NC(=O)[C@H](CC(C)C)[C@H](O)C(=O)NO)C(C)(C)C [Marimastat, (2R,3S)—N-1-((S)-3,3-dimethyl-1-methylamino-1-oxobutan-2-yl)-N-4,3-dihydroxy-2-isobutylsuccinamide]
duration and number of seizures [1]: reduced the duration and number of seizures
growth indicators of tumor-specific antigens [2]: significantly reduced all four growth indicators of tumor-specific antigens in a dose-dependent manner

weight loss (TG) [3]: 0.4%
degradation temperature (TG) [3]: above 200 °C
stability by XRPD (changes in diffraction lines) [4]: stable
thermodynamic stability of the form [5]: kinetic forms
rate of dissolution in water [6]: fastest soluble in water
Structure (SMILES): CNC(=O)[C@@H](NC(=O)[C@H](CC(C)C)[C@H](O)C(=O)NO)C(C)(C)C [form III]

weight loss (TG) [3]: 0.2%
degradation temperature (TG) [3]: above 200 °C
stability by XRPD (changes in diffraction lines) [4]: stable
thermodynamic stability of the form [5]: kinetic forms
XRPD form after stirring ([7]; 2-propanol, 30 mg/mL): Form II
XRPD form after stirring ([7]; acetonitrile, 10 mg/mL): Form I
XRPD form after stirring ([7]; butyl acetate, 10 mg/mL): Form Il
XRPD form after stirring ([7]; ethanol, 10 mg/mL): Form II
XRPD form after stirring ([7]; methanol, 110 mg/mL): Form I
XRPD form after stirring ([7]; methylcyclohexane, 10 mg/mL): Form II
XRPD form after stirring ([7]; methylene chloride, 20 mg/mL): Form II
XRPD form after stirring ([7]; p-xylene, 20 mg/mL): Form II
XRPD form after stirring ([7]; water, 30 mg/mL): Form II
bulk density [8]: highest and comparable bulk density
Structure (SMILES): CNC(=O)[C@@H](NC(=O)[C@H](CC(C)C)[C@H](O)C(=O)NO)C(C)(C)C [form II]

weight loss (TG) [3]: 0.3%
degradation temperature (TG) [3]: above 200 °C
stability by XRPD (changes in diffraction lines) [4]: stable
thermodynamic stability of the form [5]: most thermodynamically stable
thermodynamic stability of the form ([7]; form II stirred in solvents, 25° C., 4 days): greatest thermodynamic stability
bulk density [8]: highest and comparable bulk density
rate of dissolution in water [6]: dissolves the slowest
Structure (SMILES): CNC(=O)[C@@H](NC(=O)[C@H](CC(C)C)[C@H](O)C(=O)NO)C(C)(C)C [form I]

stability by XRPD (changes in diffraction lines) [4]: stable
Structure (SMILES): CNC(=O)[C@@H](NC(=O)[C@H](CC(C)C)[C@H](O)C(=O)NO)C(C)(C)C [mixture of the forms I and III]

XRPD form after stirring ([5]; 2-propanol, 30 mg/mL): Form I + Form III
XRPD form after stirring ([5]; acetone, 10 mg/mL): Form I
XRPD form after stirring ([5]; acetonitrile, 10 mg/mL): Form I
XRPD form after stirring ([5]; butyl acetate, 10 mg/mL): Form I + Form II + Form III
XRPD form after stirring ([5]; dimethoxyethane, 10 mg/mL): Form I
XRPD form after stirring ([5]; ethanol, 10 mg/mL): Form I
XRPD form after stirring ([5]; heptane, 10 mg/mL): Form I + Form II + Form III
XRPD form after stirring ([5]; methanol, 110 mg/mL): Form I
XRPD form after stirring ([5]; methyl isobutyl ketone, 10 mg/mL): Form I + Form II + Form III
XRPD form after stirring ([5]; methyl tert-butyl ether, 10 mg/mL): Form I + Form III
XRPD form after stirring ([5]; methylcyclohexane, 10 mg/mL): Form I + Form II + Form III
XRPD form after stirring ([5]; methylene chloride, 10 mg/mL): Form I + Form II + Form III
XRPD form after stirring ([5]; p-xylene, 10 mg/mL): Form I + Form II + Form III
XRPD form after stirring ([5]; tetrahydrofuran, 10 mg/mL): Form I
XRPD form after stirring ([5]; toluene, 10 mg/mL): Form I + Form II + Form III
XRPD form after stirring ([5]; water, 30 mg/mL): Form I + Form III
Structure (SMILES): CNC(=O)[C@@H](NC(=O)[C@H](CC(C)C)[C@H](O)C(=O)NO)C(C)(C)C [mixture of three polymorphic forms]
